Patent US9012420B2, “Aptamer for chymase, and use thereof” (Ribomic Inc., priority 2009, dated 2015)
Oligonucleotides are written 5' to 3', each unit as a sugar letter and its base; * is a phosphorothioate linkage, no mark a phosphodiester; rarer units and linkages stand in square brackets, end groups in braces. Plain capitals give the bases only. r = 2'-OH (RNA); f = 2'-fluoro

Target: T1, chymase (recombinant, manufactured by SIGMA) (Homo sapiens, UniProt P23946)
T1 construct: purchased SIGMA; host or cells: yeast
T1 sequence (P23946 22-247): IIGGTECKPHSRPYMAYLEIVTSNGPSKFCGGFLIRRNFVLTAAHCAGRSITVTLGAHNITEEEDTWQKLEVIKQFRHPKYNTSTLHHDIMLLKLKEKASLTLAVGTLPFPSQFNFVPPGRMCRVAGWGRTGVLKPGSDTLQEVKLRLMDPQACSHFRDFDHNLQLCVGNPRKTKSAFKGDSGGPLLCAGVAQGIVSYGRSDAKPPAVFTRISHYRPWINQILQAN
Assay: Chymase inhibitory activity using synthetic substrate Suc-Ala-Ala-Pro-Phe-MCA
Type: biochemical
How it was run: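 Human recombinant chymase (16.7 nM or 1.67 nM final) preincubated 5 min at 37° C., then added to nucleic acid (0.0027–2 μM serial dilutions) and 100 μM substrate in solution C. AMC fluorescence (ex 380/em 460 nm) followed 5 or 30 min at 37° C.; slope gives initial velocity, inhibition versus no-inhibitor control yields IC50.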

[1] = Table 5, same manner as Example 3, mean value of two measurements
[2] = Table 7, same manner as Example 3, mean value of two measurements
[3] = Table 6, same manner as Example 3, mean value of two measurements
[4] = Table 4, same manner as Example 3, mean value for 2 to 3 measurements
[5] = Table 3, substrate 100 μM, solution C, 37° C., mean value for 2 to 3 measurements

With “58 (GGGUUGAAGAUAUUAAAGAACCC; 2'-fluoro at CU, RNA at AG, backbone not given here) [compound 58]” the IC50 [1] was > 1000 nM.

Work on “72 (GGGTTAGAUAGAGTUAAAAACCC; chemistry not given here) [compound 72]” yielded an IC50 [2] of 20 ± 2 nM.

With “GGGU(F)U(F)GAAGAU(F)AU(F)U(F)AAAGAAC(F)C(F)C(F) (GGGUUGAAGAUAUUAAAGAACCC; 2'-fluoro at CU, RNA at AG, backbone not given here) [SEQ ID NO: 58]” the IC50 [1] was > 1000 nM, the IC50 [3] was > 1000 nM and the IC50 [2] was > 1000 nM.

Work on “56 (GGGUUAGAUAGAGUUAAAAACCC; 2'-fluoro at CU, RNA at AG, backbone not given here) [compound 56]” yielded an IC50 [4] of 46 ± 31 nM and an IC50 [3] of 27 ± 2 nM.

“71 (GGGUUAGAUAGAGTUAAAAACCC; chemistry not given here) [compound 71]” showed an IC50 [2] of 28 ± 5 nM.

“54 (UAACUAUGGUUAGAUAGAGUUAAAAACCAUAGAAGA; 2'-fluoro at CU, RNA at AG, backbone not given here) [compound 54]” gave an IC50 [4] of 51 ± 33 nM.

Molecule “70 (GGGTTAGAUAGAGUUAAAAACCC; chemistry not given here) [compound 70]” has an IC50 [2] of 27 ± 4 nM.

Molecule “55 (CUAUGGUUAGAUAGAGUUAAAAACCAUAG; 2'-fluoro at CU, RNA at AG, backbone not given here) [compound 55]” has an IC50 [4] of 55 ± 23 nM.

`CC(C)C[C@H](NC(=O)[C@@H](NC(=O)N[C@@H](Cc1ccccc1)C(=O)O)[C@@H]1CCN=C(N)N1)C(=O)N[C@H](C=O)Cc1ccccc1` [chymostatin, reference compound] showed an IC50 [5] of 100 to 200 nM.

With “65 (rGrGfCrArGrAfUrArGrArGfUfUrArArArGfCfC) [compound 65]” the IC50 [1] was 56 ± 46 nM.

“53 (GGGUAACUAUGGUUAGAUAGAGUUAAAAACCAUAGAAGACCC; 2'-fluoro at CU, RNA at AG, backbone not given here) [compound 53]” showed an IC50 [4] of 66 ± 24 nM.

B1: 4 (nucleic acid)
chain: rGrGrGrAfCrGrGfUrArGrGrArAfUfUfCrGfUfCfCrAfUfUfCfUrAfCrArGrAfUrArGrArGrAfUrArArArGfUrArGrArAfUfUfUrArAfCrArArArAfCrAfUrArGrArArGrArGfCrGrGfCfCrGfC
modifications: aptamer
B1 gave an IC50 [5] of 49 ± 3 nM.

B2: 13 (nucleic acid)
chain: rGrGrGrAfCrGrGfUrArGrGrArAfUfUfCfCrGfCrArAfCfCrAfUfCfCfCrGfUrArAfCfUrAfUrGrGfUfUrArGrAfUrArGrArGfUfUrArArArArAfCfCrAfUrArGrArArGrArGfCrGrGfCfCrGfC
modifications: aptamer
Work on B2 yielded an IC50 [5] of 58 ± 24 nM.

B3: 14 (nucleic acid)
chain: rGrGrGrAfCrGrGfUrArGrGrArAfUfUfCfUfCrGfUfUfCfCfUrGrAfCrArGfCrAfUfUfUrGrArGrAfUrArGrAfUfUfUrArArAfCrArArAfCrGfCrAfCrAfUrArGrArArGrArGfCrGrGfCfCrGfC
modifications: aptamer
Work on B3 yielded an IC50 [5] of 61 ± 53 nM.
